Data taken from ChEMBL document CHEMBL5053468, “Aromatic ring compound as ghrelin o-acyltransferase inhibitor” (2017).

target: T1, Membrane-bound ghrelin O-acyltransferase MBOAT4 (Homo sapiens) (UniProt Q96T53); assay: Inhibition of human GOAT expressed in baculovirus infected Sf9 cells at 10 uM using octanoyl-CoA and ghrelin-biotin as substrate preincubated for 20 mins followed by substrate addition and measured after = > 1 hr by HTRF assay relative to control; conditions: time hrs >=1
T1 sequence (whole entry): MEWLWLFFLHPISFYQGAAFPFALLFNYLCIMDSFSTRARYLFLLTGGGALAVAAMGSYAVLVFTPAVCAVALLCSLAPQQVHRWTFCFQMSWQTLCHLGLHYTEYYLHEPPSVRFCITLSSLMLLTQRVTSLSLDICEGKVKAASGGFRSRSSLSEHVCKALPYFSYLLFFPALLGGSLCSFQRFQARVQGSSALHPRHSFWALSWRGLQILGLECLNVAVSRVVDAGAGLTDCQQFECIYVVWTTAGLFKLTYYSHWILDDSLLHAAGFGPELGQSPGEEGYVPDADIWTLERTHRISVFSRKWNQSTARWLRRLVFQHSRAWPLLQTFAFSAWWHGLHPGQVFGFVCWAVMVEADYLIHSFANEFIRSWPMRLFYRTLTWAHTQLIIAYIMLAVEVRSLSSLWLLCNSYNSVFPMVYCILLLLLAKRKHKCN

First: CCOC(=O)CNC(=O)Cc1csc2cc(OCc3ccc(Cl)cc3Cl)ccc12
Second: CCOC(=O)Cc1csc2cc(OCc3ccc(Cl)cc3Cl)ccc12
The inhibition of the first is lower: 56% for the first, 69% for the second.

First: Cc1ccc(COc2cc(C)c3c(CC(=O)O)coc3c2C)c(C)n1
Second: COC(=O)Cc1coc2c(C)c(OCc3ccc(C)nc3C)cc(C)c12
The inhibition of the first is higher: 102% for the first, 92.7% for the second.

Compared with `Cc1ccc(/C=C/c2ccc3c(CC(=O)O)csc3c2)c(C)n1`, `Cc1ccc(CCc2ccc3c(CC(=O)O)csc3c2)c(C)n1` is higher in inhibition: 83.1% for the first, 97.3% for the second.

Compared with `Cn1nc(C(F)(F)F)cc1COc1cc(Cl)c2c(CC(=O)O)csc2c1`, `Cn1nc(C(F)(F)F)cc1COc1cc(F)c2c(CC(=O)O)csc2c1` is lower in inhibition: 105% for the first, 104% for the second.

Going from `Cc1nc(C(F)(F)F)ccc1COc1cc(C)c2c(CC(=O)O)csc2c1C` to `Cc1nc(C(F)(F)F)ccc1COc1cc(C)c2c(CC(=O)O)csc2c1F`, the inhibition rises from 105% to 106%.

Compared with `O=C(O)CNC(=O)Cc1csc2cc(OCc3ccc(Cl)cc3Cl)ccc12`, `O=C(O)Cc1csc2cc(OCc3ccc(Cl)cc3Cl)ccc12` is higher in inhibition: 95% for the first, 99.2% for the second.

Going from `COC(=O)Cc1csc2c(F)c(OCc3cc(C(F)(F)F)nn3C)cc(Cl)c12` to `COC(=O)Cc1csc2c(F)c(OCc3cc(C(F)(F)F)nn3C)cc(C)c12`, the inhibition falls from 98.9% to 96.1%.

Going from `COC(=O)Cc1c(C)sc2cc(OCc3ccc(C(F)(F)F)nc3C)cc(Cl)c12` to `Cc1nc(C(F)(F)F)ccc1COc1cc(Cl)c2c(CC(=O)O)c(C)sc2c1`, the inhibition rises from 51.5% to 103%.

Compared with `O=C(Cc1csc2cc(OCc3ccc(Cl)cc3Cl)ccc12)NC(CO)C(=O)O` (stereo not given), `COC(=O)C(CO)NC(=O)Cc1csc2cc(OCc3ccc(Cl)cc3Cl)ccc12` (stereo not given) is lower in inhibition: 97% for the first, 86% for the second.

Compared with `Cn1nc(C(F)(F)F)cc1COc1cc(Cl)c2c(CC(=O)O)csc2c1F`, `Cc1cc(OCc2cc(C(F)(F)F)nn2C)c(F)c2scc(CC(=O)O)c12` is lower in inhibition: 107% for the first, 104% for the second.

Compared with `Cc1cc(COc2cc(Cl)c3c(CC(=O)O)csc3c2)n(C)n1`, `Cc1cc(COc2cc(C)c3c(CC(=O)O)csc3c2)n(C)n1` is lower in inhibition: 105% for the first, 95.6% for the second.

Going from `O=C(O)CC1CS(=O)(=O)c2cc(OCc3ccc(Cl)cc3Cl)ccc21` (stereo not given) to `O=C(O)C[C@H]1COc2cc(OCc3ccc(Cl)cc3Cl)ccc21`, the inhibition rises from 79% to 86%.

First: COC(=O)Cc1csc2cc(OCc3ccc(C(F)(F)F)nc3C)cc(C)c12
Second: COC(=O)Cc1csc2cc(OCc3ccc(C(F)(F)F)nc3C)cc(F)c12
The inhibition of the first is lower: 93.8% for the first, 94.9% for the second.

First: COC(=O)Cc1coc2c(C)c(OCc3ccc(Cl)cc3Cl)cc(C)c12
Second: Cc1c(OCc2ccc(Cl)cc2Cl)cc(C)c2c(CC(=O)O)coc12
The inhibition of the first is lower: 68.7% for the first, 103% for the second.

Compared with `COC(=O)Cc1csc2c(F)c(OCc3ccc(C(F)(F)F)nc3C)cc(Cl)c12`, `COC(=O)Cc1csc2c(F)c(OCc3ccc(C(F)(F)F)nc3C)cc(C)c12` is higher in inhibition: 88.6% for the first, 94% for the second.

First: Cc1nc(C(F)(F)F)ccc1COc1ccc2c(CC(=O)O)csc2c1
Second: Cc1ccc(COc2ccc3c(CC(=O)O)csc3c2)c(C)n1
The inhibition of the first is lower: 93.1% for the first, 99% for the second.

Going from `CCOC(=O)Cc1csc2cc(OCc3ccc(C)nc3C)ccc12` to `COC(=O)Cc1csc2cc(OCc3ccc(C)nc3C)cc(Cl)c12`, the inhibition rises from 92.8% to 96.5%.

First: O=C(O)Cc1csc2cc(SCc3ccc(Cl)cc3Cl)ccc12
Second: O=C(O)Cc1csc2cc([S+]([O-])Cc3ccc(Cl)cc3Cl)ccc12 (stereo not given)
The inhibition of the first is higher: 99.3% for the first, 67% for the second.

Compared with `Cc1cc(OCc2ccc(Cl)cc2Cl)c(C)c2c1C(CC(=O)O)CO2` (stereo not given), `Cc1ccc(COc2cc(C)c3c(c2C)OCC3CC(=O)O)c(C)n1` (stereo not given) is lower in inhibition: 96.2% for the first, 94.8% for the second.

Compared with `Cc1sc2cc(OCc3cc(C(F)(F)F)nn3C)cc(Cl)c2c1CC(=O)O`, `COC(=O)Cc1c(C)sc2cc(OCc3cc(C(F)(F)F)nn3C)cc(Cl)c12` is lower in inhibition: 106% for the first, 99.5% for the second.

Going from `Cc1nc(C(F)(F)F)ccc1COc1cc(Cl)c2c(CC(=O)O)csc2c1` to `Cc1nc(C(F)(F)F)ccc1COc1cc(F)c2c(CC(=O)O)csc2c1`, the inhibition rises from 101% to 102%.

Going from `COC(=O)Cc1csc2cc(OCc3cc(C)nn3C)cc(C)c12` to `COC(=O)Cc1csc2cc(OCc3cc(C)nn3C)cc(Cl)c12`, the inhibition rises from 94.7% to 97.4%.

Going from `COC(=O)Cc1csc2cc(OCc3ccc(Cl)cc3Cl)cc(C)c12` to `Cc1cc(OCc2ccc(Cl)cc2Cl)cc2scc(CC(=O)O)c12`, the inhibition rises from 84.4% to 103%.

First: O=C(O)CC1CSc2cc(OCc3ccc(Cl)cc3Cl)ccc21 (stereo not given)
Second: O=C(O)C[C@@H]1COc2cc(OCc3ccc(Cl)cc3Cl)ccc21
The inhibition of the first is higher: 99% for the first, 93% for the second.

Going from `O=C(O)C1(CO)COc2cc(OCc3ccc(Cl)cc3Cl)ccc21` (stereo not given) to `COCC1(C(=O)O)COc2cc(OCc3ccc(Cl)cc3Cl)ccc21` (stereo not given), the inhibition rises from 81% to 85%.

Compared with `Cc1nc(C(F)(F)F)ncc1COc1cc(C)c2c(CC(=O)O)csc2c1`, `Cc1nc(C(F)(F)F)ccc1COc1cc(C)c2c(CC(=O)O)csc2c1` is lower in inhibition: 100% for the first, 99.2% for the second.

First: Cn1nc(C(F)(F)F)cc1COc1cc(C(F)(F)F)c2c(CC(=O)O)csc2c1
Second: Cc1cc(OCc2cc(C(F)(F)F)nn2C)cc2scc(CC(=O)O)c12
The inhibition of the first is lower: 103% for the first, 104% for the second.

`Cc1nc(C(F)(F)F)ccc1COc1cc(Cl)c2c(CC(=O)O)csc2c1Cl` and `Cc1nc(C(F)(F)F)ccc1COc1cc(Cl)c2c(CC(=O)O)csc2c1F` are the same in inhibition: 106% for the first, 106% for the second.

Going from `Cn1nc(C(F)(F)F)cc1COc1ccc2c(CC(=O)O)csc2c1` to `CCOC(=O)Cc1csc2cc(OCc3cc(C(F)(F)F)nn3C)ccc12`, the inhibition falls from 98.2% to 88.9%.

Compared with `Cc1ccc(COc2cc(C(F)(F)F)c3c(CC(=O)O)csc3c2)c(C)n1`, `Cc1ccc(COc2cc(Cl)c3c(CC(=O)O)csc3c2)c(C)n1` is higher in inhibition: 103% for the first, 107% for the second.

Compared with `COC(=O)Cc1csc2cc(OCc3cc(C(F)(F)F)nn3C)cc(F)c12`, `COC(=O)Cc1csc2cc(OCc3cc(C(F)(F)F)nn3C)cc(Cl)c12` is higher in inhibition: 99.9% for the first, 100% for the second.

First: Cn1nc(C(F)(F)F)cc1COc1cc(Cl)c2c(CC(=O)O)csc2c1Cl
Second: COC(=O)Cc1csc2c(Cl)c(OCc3cc(C(F)(F)F)nn3C)cc(Cl)c12
The inhibition of the first is higher: 105% for the first, 92.7% for the second.

Compared with `COC(=O)Cc1csc2cc(OCc3cc(C(F)(F)F)nn3C)cc(C)c12`, `COC(=O)Cc1csc2cc(OCc3ccc(C(F)(F)F)nc3C)cc(Cl)c12` is lower in inhibition: 95.2% for the first, 91.6% for the second.

Compared with `O=C(O)Cc1csc2cc(S(=O)(=O)Cc3ccc(Cl)cc3Cl)ccc12`, `CCS(=O)(=O)NC(=O)Cc1csc2cc(OCc3ccc(Cl)cc3Cl)ccc12` is higher in inhibition: 83% for the first, 83.2% for the second.

First: O=C(O)Cc1coc2c(Cl)c(OCc3ccc(Cl)cc3Cl)ccc12
Second: CC(=O)NCCc1coc2cc(OCc3ccc(Cl)cc3Cl)ccc12
The inhibition of the first is higher: 100% for the first, 73% for the second.

Going from `Cc1nc(C(F)(F)F)ncc1COc1ccc2c(CC(=O)O)csc2c1` to `COC(=O)Cc1csc2c(C)c(OCc3ccc(C(F)(F)F)nc3C)cc(C)c12`, the inhibition falls from 97.3% to 62.8%.

Going from `COC(=O)Cc1csc2c(Cl)c(OCc3ccc(C(F)(F)F)nc3C)cc(Cl)c12` to `CC(=O)NCC[C@@H]1COc2cc(OCc3ccc(Cl)cc3Cl)ccc21`, the inhibition falls from 88.1% to 69%.

In the case of `CCC(=O)NCC[C@@H]1COc2cc(OCc3ccc(Cl)cc3Cl)ccc21`, the inhibition is reported as 59%.
